Data reported in patent US9034943B2, “Salts of dehydroacetic acid as a pyrithione stabilizer in plastics” (LONZA LTD, priority 2009, dated 2015).
Where two headings read alike, the source gives them in different places.

What was measured:
[1] = Method: Zinc dehydroacetate and zinc pyrithione were mixed with filled and clear commercial flexible polyvinyl chloride (PVC) compounds. The mixtures were extruded using an intermeshing modular co-rotating twin screw extruder to form flexible PVC compounds. […] Following extrusion, the flexible PVC compounds were cooled. Once cooling was complete, the flexible PVC compounds were pressed at 185° C. to form plastic sheets.
Zinc pyrithione was mixed with filled and clear commercial flexible polyvinyl chloride (PVC) compounds. The mixtures were extruded using an intermeshing modular co-rotating twin screw extruder to form flexible PVC compounds. […] Following extrusion, the flexible PVC compounds were cooled. Once cooling was complete, the flexible PVC compounds were pressed at 185° C. to form plastic sheets.
The weathering tester was set to a cycle of eight hours of ultraviolet A light (long wave) exposure and a four hour water condensation cycle in accordance with ASTM […]. After 1,000 hours of exposure, the plastic sheets were examined for color development.

[2] = tested on: Aspergillus niger ATCC 9642; Aureobasidium pullulans ATCC 15233; Chaetomium globosum ATCC 6205; Penicillium funiculosum ATCC 11797; Trichoderma virens ATCC …; test: Fungal resistance test, ASTM G21, on mineral salts agar; design: Zone of Inhibition: key to the marks not given beside the values; settings: PVC samples inoculated with mixed fungi, 28° C., 4 weeks

zinc pyrithione
Color Rating of Clear FPVC ([1]; clear flexible PVC sheet, 0 hours QUV exposure): 0
Color Rating of Clear FPVC ([1]; clear flexible PVC sheet, 1,000 hours QUV exposure (8 h UVA / 4 h condensation cycle)): 3
Color Rating of Filled FPVC ([1]; filled flexible PVC sheet, 0 hours QUV exposure): 0
Color Rating of Filled FPVC ([1]; filled flexible PVC sheet, 1,000 hours QUV exposure (8 h UVA / 4 h condensation cycle)): 4
Fungal Growth Reading [2]: 0
Zone of Inhibition [2]: ++
